These results are taken from ChEMBL document CHEMBL3352486, “Design, synthesis and biological evaluation of metronidazole-thiazole derivatives as antibacterial inhibitors” (Bioorg Med Chem Lett, 2014).

Data set [1] has as its system Escherichia coli. The data set can be described thus: Antibacterial activity against Escherichia coli after 24 hrs by MTT method. In kind it is functional, organism-based.
The test system of data set [2] is Pseudomonas aeruginosa. Description: Antibacterial activity against Pseudomonas aeruginosa after 24 hrs by MTT method. In kind it is functional, organism-based.
In data set [3] the test system is Bacillus thuringiensis. The data set can be described thus: Antibacterial activity against Bacillus thuringiensis after 24 hrs by MTT method. In kind it is functional, organism-based.
The test system of data set [4] is Bacillus subtilis. The data set can be described thus: Antibacterial activity against Bacillus subtilis after 24 hrs by MTT method. In kind it is functional, organism-based.
Data set [5] addresses T1, Beta-ketoacyl-[acyl-carrier-protein] synthase III (Escherichia coli K-12, UniProt P0A6R0).
T1 sequence (P0A6R0 whole entry): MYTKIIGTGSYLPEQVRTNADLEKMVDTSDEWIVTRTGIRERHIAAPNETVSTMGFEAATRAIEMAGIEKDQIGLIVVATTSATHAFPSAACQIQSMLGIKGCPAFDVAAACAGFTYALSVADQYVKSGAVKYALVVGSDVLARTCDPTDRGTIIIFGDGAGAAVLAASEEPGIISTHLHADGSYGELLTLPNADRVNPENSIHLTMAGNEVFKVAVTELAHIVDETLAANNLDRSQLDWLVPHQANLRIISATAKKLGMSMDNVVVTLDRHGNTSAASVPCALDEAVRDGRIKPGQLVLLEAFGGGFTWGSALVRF
Description: Inhibition of Escherichia coli FabH.

Data set [6] can be described thus: Cytotoxicity against human macrophages assessed as drug level causing microscopically detectable alteration in normal cell morphology after 24 hrs by MTT assay. In kind it is cell-based, Macrophage.

In brackets after ≈: the same amount, converted by molar mass.

As for `Cc1ncc([N+](=O)[O-])n1CCOc1ccc(/C=N/Nc2nc(-c3ccccc3)cs2)cc1`, the half-inhibitory concentration (IC50) in data set [1] stood at 38.3 µg/mL (≈ 85.4 µM); in data set [2], 38.2 µg/mL (≈ 85.2 µM); in data set [3], 15.5 µg/mL (≈ 34.6 µM); in data set [4] it was 13.1 µg/mL (≈ 29.2 µM); in data set [5] it was 5.2 µM. For the same compound, in data set [6], the 50% cytotoxic concentration (CC50) at 24 h turned out to be 467 µg/mL.
`NC[C@H]1O[C@H](O[C@H]2[C@H](O)[C@@H](O[C@H]3O[C@H](CO)[C@@H](O)[C@H](N)[C@H]3O)[C@H](N)C[C@@H]2N)[C@H](O)[C@@H](O)[C@@H]1O` [KANAMYCIN]: the values for the IC50 in data set [1] and in data set [5] were 46.3 µg/mL (≈ 95.6 µM) and 6.8 µM, respectively.
With `Cc1ncc([N+](=O)[O-])n1CCOc1cccc(/C=N/Nc2nc(-c3ccccc3Br)cs2)c1`, the half-maximal inhibitory concentration (IC50) was found to be 75.2 µg/mL (≈ 143 µM) in data set [1]; 67.7 µg/mL (≈ 128 µM) in data set [2]; 58.7 µg/mL (≈ 111 µM) in data set [3]; 15.5 µg/mL (≈ 29.4 µM) in data set [4]; 36.2 µM in data set [5].
Regarding `COc1ccc(-c2csc(N/N=C/c3cccc(OCCn4c([N+](=O)[O-])cnc4C)c3)n2)cc1`, the IC50 in data set [1] is 28.8 µg/mL (≈ 60.2 µM); in data set [2], 10.8 µg/mL (≈ 22.6 µM); in data set [3], 5.9 µg/mL (≈ 12.3 µM); in data set [4], 1.9 µg/mL (≈ 3.97 µM); in data set [5], 9.2 µM. Further, the CC50 at 24 h in data set [6] was found to be 238 µg/mL.
For the compound `Cc1ncc([N+](=O)[O-])n1CCOc1cccc(/C=N\NC(N)=S)c1`, the IC50 came out at 89.7 µg/mL (≈ 257 µM) in data set [1], 85.6 µg/mL (≈ 246 µM) in data set [2], 78.6 µg/mL (≈ 226 µM) in data set [3] and 96.3 µg/mL (≈ 276 µM) in data set [4].
On to `Cc1ncc([N+](=O)[O-])n1CCOc1cccc(/C=N/Nc2nc(-c3ccccc3)cs2)c1`, for which the 50% inhibitory concentration (IC50) in data set [1] came out at 48.6 µg/mL (≈ 108 µM); in data set [2], 21.6 µg/mL (≈ 48.2 µM); in data set [3], 53.7 µg/mL (≈ 120 µM); in data set [4], 118 µg/mL (≈ 264 µM); in data set [5] it was 8.6 µM.
For the compound `Cc1ncc([N+](=O)[O-])n1CCOc1ccc(/C=N/Nc2nc(-c3ccc(C(F)(F)F)cc3)cs2)cc1`, the concentration for half-maximal inhibition (IC50) was determined as 41.2 µg/mL (≈ 79.8 µM) in data set [1]; 98 µg/mL (≈ 190 µM) in data set [2]; 78.8 µg/mL (≈ 153 µM) in data set [3]; 32.8 µg/mL (≈ 63.5 µM) in data set [4]; 7.2 µM in data set [5]. In addition, the half-maximal cytotoxic concentration (CC50) at 24 h in data set [6] was determined as 218 µg/mL.
For the compound `Cc1ncc([N+](=O)[O-])n1CCOc1ccc(/C=N/Nc2nc(-c3ccccc3Br)cs2)cc1`, the IC50 in data set [1] was 26.9 µg/mL (≈ 51 µM); in data set [2] it was 20.6 µg/mL (≈ 39.1 µM); in data set [3] it was 88.4 µg/mL (≈ 168 µM); in data set [4], 27.6 µg/mL (≈ 52.3 µM); in data set [5] it was 4.9 µM. Moreover, in data set [6], the half-maximal cytotoxic concentration (CC50) at 24 h was 322 µg/mL.
Turning to `Cc1ncc([N+](=O)[O-])n1CCOc1ccc(/C=N/Nc2nc(-c3ccc(Br)cc3)cs2)cc1`, the IC50 in data set [1] turned out to be 43.3 µg/mL (≈ 82.1 µM); in data set [2], 85.3 µg/mL (≈ 162 µM); in data set [3], 66.9 µg/mL (≈ 127 µM); in data set [4], 98.8 µg/mL (≈ 187 µM); in data set [5] it was 6.2 µM.
On to `Cc1ncc([N+](=O)[O-])n1CCOc1ccc(/C=N\NC(N)=S)cc1`, for which the IC50 in data set [1] is 111 µg/mL (≈ 318 µM); in data set [2] it was 98.3 µg/mL (≈ 282 µM); in data set [3] it was 88.4 µg/mL (≈ 254 µM); in data set [4], 103 µg/mL (≈ 296 µM).
As for `Cc1ncc([N+](=O)[O-])n1CCOc1cccc(/C=N/Nc2nc(-c3ccc(C(F)(F)F)cc3)cs2)c1`, the half-maximal inhibitory concentration (IC50) is 48.8 µg/mL (≈ 94.5 µM) in data set [1]; 3.6 µg/mL (≈ 6.97 µM) in data set [2]; 73 µg/mL (≈ 141 µM) in data set [3]; 3.7 µg/mL (≈ 7.16 µM) in data set [4]; 13.5 µM in data set [5]. In addition, the CC50 at 24 h in data set [6] was determined as 517 µg/mL.
As for `COc1ccc(-c2csc(N/N=C/c3ccc(OCCn4c([N+](=O)[O-])cnc4C)cc3)n2)cc1`, the half-inhibitory concentration (IC50) turned out to be 50.8 µg/mL (≈ 106 µM) in data set [1]; 6.3 µg/mL (≈ 13.2 µM) in data set [2]; 26.2 µg/mL (≈ 54.8 µM) in data set [3]; 19.4 µg/mL (≈ 40.5 µM) in data set [4]; 6.1 µM in data set [5]. Besides, in data set [6], the half-maximal cytotoxic concentration (CC50) at 24 h was found to be 268 µg/mL.
Take `Cc1ncc([N+](=O)[O-])n1CCOc1cccc(/C=N/Nc2nc(-c3ccc(Br)cc3)cs2)c1`: the half-inhibitory concentration (IC50) turned out to be 98.3 µg/mL (≈ 186 µM) in data set [1]; 83.9 µg/mL (≈ 159 µM) in data set [2]; 98 µg/mL (≈ 186 µM) in data set [3]; 117 µg/mL (≈ 223 µM) in data set [4]; 20.8 µM in data set [5].
